Test results taken from the NIST ThermoML archive (doi:10.1021/acs.jced.7b00604).
Numbers after ± are expanded uncertainties.

Test: xn = mol fraction of the nth substance listed
Conditions: 100 kPa, Liquid; for speed of sound: Frequency=3 MHz, Sing-around technique in a fixed-path interferometer; for mass density: Vibrating tube method

COCCO [2-methoxyethan-1-ol] + CCCC[n+]1ccn(C)c1.O=S(=O)([N-]S(=O)(=O)C(F)(F)F)C(F)(F)F
Conditions | mass density, 313.15 K [kg/m3] | mass density, 318.15 K [kg/m3] | mass density, 323.15 K [kg/m3] | speed of sound, 313.15 K [m/s] | speed of sound, 318.15 K [m/s] | speed of sound, 323.15 K [m/s]
x2 = 0 | 946.41 ± 1 | 941.72 ± 1 | 936.99 ± 1 | 1292 ± 1.5 | 1274.2 ± 1.5 | 1259.4 ± 1.5
x2 = 0.0966 | 1084.06 ± 1.1 | 1079.38 ± 1.1 | 1074.61 ± 1.1 | 1255.3 ± 1.5 | 1238.8 ± 1.5 | 1224.6 ± 1.5
x2 = 0.1943 | 1174.55 ± 1.1 | 1169.76 ± 1.1 | 1165.02 ± 1.1 | 1236.4 ± 1.5 | 1221.3 ± 1.5 | 1207.8 ± 1.5
x2 = 0.2887 | 1236.14 ± 1.1 | 1231.28 ± 1.1 | 1226.67 ± 1.1 | 1224.7 ± 1.5 | 1210.4 ± 1.5 | 1197.6 ± 1.5
x2 = 0.3979 | 1288.26 ± 1.1 | 1283.31 ± 1.1 | 1278.8 ± 1.1 | 1215.7 ± 1.5 | 1202.3 ± 1.5 | 1190.1 ± 1.5
x2 = 0.4792 | 1318.36 ± 1.1 | 1313.34 ± 1.1 | 1308.85 ± 1.1 | 1209.7 ± 1.5 | 1197.1 ± 1.5 | 1185 ± 1.5
x2 = 0.5943 | 1351.69 ± 1.1 | 1346.72 ± 1.1 | 1342.24 ± 1.1 | 1204.9 ± 1.5 | 1192.7 ± 1.5 | 1181.1 ± 1.5
x2 = 0.6753 | 1370.39 ± 1.1 | 1365.42 ± 1.1 | 1361.02 ± 1.1 | 1202 ± 1.5 | 1190.3 ± 1.5 | 1179.1 ± 1.5
x2 = 0.8101 | 1395.76 ± 1.1 | 1390.82 ± 1.1 | 1386.53 ± 1.1 | 1198.9 ± 1.5 | 1187.7 ± 1.5 | 1176.9 ± 1.5
x2 = 0.8849 | 1407.44 ± 1.1 | 1402.59 ± 1.1 | 1398.24 ± 1.1 | 1197.3 ± 1.5 | 1186.3 ± 1.5 | 1175.9 ± 1.5
